From ChEMBL document CHEMBL5614440, “Development of Novel Indole-Based Covalent Inhibitors of TEAD as Potential Antiliver Cancer Agents” (J Med Chem, 2024)

Columns and labels:
[1] = tested on: HEK293T; assay: Inhibition of TEAD (unknown origin) expressed in HEK293T cells transfected with 8xGTIIC-luciferase at 10 uM by dual luciferase reporter assay relative to control; format: cell-based; settings: Homo sapiens
[2] = tested on: Huh-7; assay: Antiproliferative activity against human Huh-7 cells at 10 uM incubated for 3 days by CCK8 assay; format: functional; settings: time 3 day
[3] = tested on: Huh-7; assay: Antiproliferative activity against human Huh-7 cells incubated for 3 days by CCK8 assay; format: functional, cell-based; settings: Huh-7, 72 h
[4] = tested on: Huh-7; assay: Antitumor activity against human Huh-7 cells xenografted in NSG mouse assessed as tumor growth inhibition at 100 mg/kg, po administered every 3 days for 24 days and measured every 3 days; format: functional; settings: Huh-7, 576 h, time 24 day, read-out: TGI
[5] = Inhibition of TEAD transcription in human Huh-7 cells transfected with 8xGTIIC-luciferase by dual luciferase reporter assay; format: cell-based
[6] = tested on: Huh-7; assay: Inhibition of TEAD transcription in human Huh-7 cells transfected with 8xGTIIC-luciferase assessed as downregulation of CTGF mRNA expression incubated for 24 hrs by RT-PCR analysis; format: cell-based; settings: dose 1.25-10 µM
[7] = tested on: Huh-7; assay: Inhibition of TEAD transcription in human Huh-7 cells transfected with 8xGTIIC-luciferase assessed as downregulation of CTGF protein expression by Western blotting analysis; format: cell-based; settings: dose 1.25-15 µM

IC50 [3]	Compound	inhibition [1]	also measured
	N#C/C(=C\c1c[nH]c2cc(Cl)c(OCc3cccc4ccccc34)cc12)C(N)=O	51.3%	Activity [2]: 70%
2700 nM	O=C(CCl)c1c[nH]c2cc(Cl)c(OCc3ccccc3)cc12	74.6%	
	CNC(=O)c1cc(Oc2ccc(NC(=O)Nc3ccc(Cl)c(C(F)(F)F)c3)cc2)ccn1 [SORAFENIB]		inhibition in vivo at 100 mg/kg [4]: 76%
2400 nM	COc1cc2[nH]cc(C(=O)CCl)c2cc1OCc1ccc2ccccc2c1	93.9%	
4100 nM	N#C/C(=C\c1c[nH]c2cc(Cl)c(OCc3ccc4ccccc4c3)cc12)C(N)=O	47.3%	
> 20000 nM	O=C(CCl)c1c[nH]c2ccc(OCc3ccc4ccccc4c3)cc12	5.3%	
2300 nM	O=C(CCl)c1c[nH]c2cc(Cl)c(OCc3ccc4ccccc4c3)cc12	95.6%	IC50 [5]: 870 nM; inhibition [6]: Dose-Dependent Effect; inhibition [7]: Dose-Dependent Effect
